# System: moderate-to-severe chronic spontaneous urticaria (CSU)
# Test: Phase 2 CSU study: urticaria control test (UCT)
# Format: in vivo, human
# Set-up: key to UCT, Mean / UCT, Median / UCT change from baseline, Mean / UCT change from baseline, Median: UCT total = sum of 4 item scores; low = low disease control
# From the text: The study comprises a 12 week, randomized, double-blind, placebo-controlled, multi-center, dose-ranging efficacy and safety phase, followed by a 40 week open label extension (OLE) phase (see FIG. 1). The study consists of three phases and an optional OLE phase. […] To this end, the UCT was proposed as a tertiary endpoint in this study. […] The dermatology life quality index (DLQI) was proposed as a tertiary endpoint in this study. […] Low scores indicate high disease activity and low disease control. The UCT total score is calculated by adding all 4 individual item scores. […] The recall period is the previous 4 weeks. Patients were to complete the UCT questionnaire during their site visit.
# [1] = 400 mg BID, End of study, omalizumab-naïve population
# [2] = 400 mg BID, End of study, prior omalizumab use incl. incomplete responders
# [3] = 400 mg BID, Week 4, ITT population
# [4] = 400 mg BID, Week 4, omalizumab-naïve population
# [5] = 400 mg BID, Week 4, prior omalizumab use incl. incomplete responders
# [6] = 400 mg BID, Week 8, ITT population
# [7] = 400 mg BID, Week 8, omalizumab-naïve population
# [8] = 400 mg BID, Week 8, prior omalizumab use incl. incomplete responders
# [9] = 400 mg BID, Week 12, ITT population
# [10] = 400 mg BID, Week 12, omalizumab-naïve population
# [11] = 400 mg BID, Week 12, prior omalizumab use incl. incomplete responders
# [12] = 400 mg QPM, End of study, omalizumab-naïve population
# [13] = 400 mg QPM, End of study, prior omalizumab use incl. incomplete responders
# [14] = 400 mg QPM, Week 4, ITT population
# [15] = 400 mg QPM, Week 4, omalizumab-naïve population
# [16] = 400 mg QPM, Week 4, prior omalizumab use incl. incomplete responders
compound,measurement,setting,value
"CC(C)(C=C(C#N)C(=O)N1CCC[C@@H](n2nc(-c3ccc(Oc4ccccc4)cc3F)c3c(N)ncnc32)C1)N1CCN(C2COC2)CC1 [rilzabrutinib, (R)-2-[3-[4-amino-3-(2-fluoro-4-phenoxy-phenyl)pyrazolo[3,4-d]pyrimidin-1-yl]piperidine-1-carbonyl]-4-methyl-4-[4-(oxetan-3-yl)piperazin-1-yl]pent-2-enenitrile]","UCT change from baseline, Mean",[1],0.00
same,"UCT change from baseline, Median",[1],−2.00
same,"UCT percent change from baseline, Mean",[1],−21.27%
same,"UCT percent change from baseline, Median",[1],−57.14%
same,"UCT, Median",[1],3.00
same,"UCT change from baseline, Median",[2],5.50
same,"UCT percent change from baseline, Mean",[2],4.33%
same,"UCT percent change from baseline, Median",[2],4.00%
same,"UCT, Mean",[2],2.67
same,"UCT, Median",[2],3.00
same,UCT % Change difference for rilzabrutinib vs. placebo LS Mean (95% CI),[3],"96.74 (−24.75, 218.23) %"
same,UCT % Change from baseline LS Mean (SE),[3],236.29 (42.88) %
same,UCT Change difference for rilzabrutinib vs. placebo LS Mean (95% CI),[3],"0.94 (−0.87, 2.75)"
same,UCT Change from baseline LS Mean (SE),[3],4.27 (0.65)
same,UCT Post-baseline Mean (SD),[3],8.56 (4.95)
same,UCT % Change difference for rilzabrutinib vs. placebo LS Mean (95% CI),[4],"120.19 (−1.20, 241.59) %"
same,UCT % Change from baseline LS Mean (SE),[4],263.00 (44.80) %
same,UCT Change difference for rilzabrutinib vs. placebo LS Mean (95% CI),[4],"1.27 (−0.56, 3.11)"
same,UCT Change from baseline LS Mean (SE),[4],4.51 (0.66)
same,UCT Post-baseline Mean (SD),[4],8.85 (4.53)
same,"UCT change from baseline, Mean",[4],4.21
same,"UCT change from baseline, Median",[4],4.00
same,"UCT percent change from baseline, Mean",[4],220.19%
same,"UCT percent change from baseline, Median",[4],75.00%
same,"UCT, Mean",[4],8.85
same,"UCT, Median",[4],9.00
same,"UCT change from baseline, Mean",[5],4.33
same,"UCT change from baseline, Median",[5],4.00
same,"UCT percent change from baseline, Mean",[5],151.39%
same,"UCT percent change from baseline, Median",[5],137.50%
same,"UCT, Median",[5],5.50
same,UCT % Change difference for rilzabrutinib vs. placebo LS Mean (95% CI),[6],"139.58 (18.06, 261.09) %"
same,UCT % Change from baseline LS Mean (SE),[6],304.12 (43.11) %
same,UCT Change difference for rilzabrutinib vs. placebo LS Mean (95% CI),[6],"1.01 (−0.90, 2.92)"
same,UCT Change from baseline LS Mean (SE),[6],5.38 (0.68)
same,UCT Post-baseline Mean (SD),[6],10.00 (4.71)
same,UCT % Change difference for rilzabrutinib vs. placebo LS Mean (95% CI),[7],"158.55 (28.05, 289.04) %"
same,UCT % Change from baseline LS Mean (SE),[7],328.12 (46.96) %
same,UCT Change difference for rilzabrutinib vs. placebo LS Mean (95% CI),[7],"1.14 (−0.74, 3.02)"
same,UCT Change from baseline LS Mean (SE),[7],5.61 (0.69)
same,UCT Post-baseline Mean (SD),[7],10.12 (4.20)
same,"UCT change from baseline, Mean",[7],5.70
same,"UCT change from baseline, Median",[7],5.00
same,"UCT percent change from baseline, Mean",[7],290.62%
same,"UCT percent change from baseline, Median",[7],114.29%
same,"UCT change from baseline, Median",[8],11.00
same,"UCT percent change from baseline, Mean",[8],248.33%
same,"UCT percent change from baseline, Median",[8],275.00%
same,"UCT, Mean",[8],9.20
same,"UCT, Median",[8],14.00
same,UCT % Change difference for rilzabrutinib vs. placebo LS Mean (95% CI),[9],"109.34 (−24.34, 243.02) %"
same,UCT % Change from baseline LS Mean (SE),[9],309.12 (47.68) %
same,UCT Change difference for rilzabrutinib vs. placebo LS Mean (95% CI),[9],"0.71 (−1.27, 2.68)"
same,UCT Change from baseline LS Mean (SE),[9],5.44 (0.71)
same,UCT Post-baseline Mean (SD),[9],9.92 (4.69)
same,UCT % Change difference for rilzabrutinib vs. placebo LS Mean (95% CI),[10],"146.79 (5.56, 288.02) %"
same,UCT % Change from baseline LS Mean (SE),[10],344.03 (53.11) %
same,UCT Change difference for rilzabrutinib vs. placebo LS Mean (95% CI),[10],"0.80 (−1.21, 2.81)"
same,UCT Change from baseline LS Mean (SE),[10],5.52 (0.74)
same,UCT Post-baseline Mean (SD),[10],10.03 (4.29)
same,"UCT change from baseline, Mean",[10],5.65
same,"UCT change from baseline, Median",[10],4.00
same,"UCT percent change from baseline, Mean",[10],301.53%
same,"UCT percent change from baseline, Median",[10],130.95%
same,"UCT change from baseline, Median",[11],8.00
same,"UCT percent change from baseline, Mean",[11],246.67%
same,"UCT percent change from baseline, Median",[11],266.67%
same,"UCT, Mean",[11],9.20
same,"UCT change from baseline, Mean",[12],8.50
same,"UCT change from baseline, Median",[12],8.50
same,"UCT percent change from baseline, Mean",[12],283.33%
same,"UCT percent change from baseline, Median",[12],283.33%
same,"UCT change from baseline, Mean",[13],8.00
same,"UCT change from baseline, Median",[13],8.00
same,"UCT percent change from baseline, Mean",[13],3.00%
same,"UCT percent change from baseline, Median",[13],3.00%
same,"UCT, Mean",[13],5.00
same,"UCT, Median",[13],5.00
same,UCT % Change difference for rilzabrutinib vs. placebo LS Mean (95% CI),[14],"−44.03 (−169.40, 81.34) %"
same,UCT % Change from baseline LS Mean (SE),[14],95.52 (42.85) %
same,UCT Change difference for rilzabrutinib vs. placebo LS Mean (95% CI),[14],"−0.89 (−2.79, 1.00)"
same,UCT Change from baseline LS Mean (SE),[14],2.44 (0.68)
same,UCT Post-baseline Mean (SD),[14],6.40 (3.11)
same,UCT % Change difference for rilzabrutinib vs. placebo LS Mean (95% CI),[15],"−48.50 (−174.55, 77.55) %"
same,UCT % Change from baseline LS Mean (SE),[15],94.30 (43.68) %
same,UCT Change difference for rilzabrutinib vs. placebo LS Mean (95% CI),[15],"−0.88 (−2.74, 0.99)"
same,UCT Change from baseline LS Mean (SE),[15],2.36 (0.66)
same,UCT Post-baseline Mean (SD),[15],6.35 (3.14)
same,"UCT change from baseline, Mean",[15],2.27
same,"UCT change from baseline, Median",[15],2.00
same,"UCT percent change from baseline, Mean",[15],102.47%
same,"UCT percent change from baseline, Median",[15],45.00%
same,"UCT, Median",[15],6.00
same,"UCT change from baseline, Mean",[16],3.00
same,"UCT change from baseline, Median",[16],3.00
same,"UCT percent change from baseline, Mean",[16],60.00%
same,"UCT percent change from baseline, Median",[16],60.00%
same,"UCT, Mean",[16],8.00
same,"UCT, Median",[16],8.00

# — patent publication US20260256792A1, “TREATMENT OF CHRONIC SPONTANEOUS URTICARIA BY ADMINISTERING (R)-2-[3-[4-AMINO-3-(2-FLUORO-4-PHENOXY-PHENYL)PYRAZOLO[3,4-D]PYRIMIDIN-1-YL]PIPERIDINE-1-CARBONYL]-4-METHYL-4-[4-(OXETAN-3-YL)PIPERAZIN-1-YL]PENT-2-ENENITRILE” (priority 2023, published 2026)
